Results as given in patent publication US5763435A, “Sulfate conjugates of ursodeoxycholic acid, and their beneficial use in inflammatory disorders” (priority 1995, dated 1998).
Entries after “also recorded” stand apart in the source; their conditions may differ.

Assays:
Type in all cases: in vivo, Sprague-Dawley rats
[1] = Urinary excretion of UDCA after oral administration
Experimental: Male Sprague-Dawley rats (Harlan Sprague-Dawley, Inc., Indianapolis, Ind.), weighing 210-290 g, were maintained on a 12-hour light-dark cycle and fed standard laboratory chow ad libitum for 3 days. The animals were then transferred to metabolic cages in which they were housed individually and fed the same diet. UDCA, UDCA 3-sulfate, UDCA 7-sulfate, and UDCA 3,7-disulfate were administered by gavage at a dose of 250 mg/day for 4 consecutive days. Each group comprised 3-6 rats. Body weights of the animals were measured each day. On day 5, the animals were killed by exsanguination under ether anesthesia. Plasma was collected and frozen at -20° C. The liver was removed, rinsed in normal saline, and flash-frozen in liquid nitrogen. Urine and feces were collected every 24 hours and frozen at -20° C. All animals received humane care in compliance with the "Guide for the Care and Use of Laboratory Animals" prepared by the National Academy of Sciences (National Institutes of Health publication no. 86-23, revised in 1985).
In each group, urine from all animals was pooled on the individual days of collection. Day 1 represented the baseline sample, and samples from days 2, 3 and 4 were obtained during bile acid administration. After the addition of nordeoxycholic acid (1 μg), bile acids were quantitatively extracted from portions of urine (3 mL) and plasma (1 mL) using Bond-Elut C18 cartridges. After liquid-solid extraction, isolation and separation of unconjugated and conjugated bile acids were achieved by lipophilic anion-exchange chromatography on Lipidex-DEAP. Solvolysis of bile acid conjugates and isolation of the hydrolyzed products were performed as described above, and bile acids were converted to volatile methyl ester-trimethylsilyl ether derivatives.
GC-MS analysis was performed using a Finnigan 4635 mass spectrometer (Finnigan Inc., San Jose, Calif.) that housed an identical gas chromatography column operated under the same conditions. Electron ionization (70 eV) mass spectra were recorded over the mass range of 50-800 daltons by repetitive scanning of the eluting components. Identification of bile acids was made on the basis of the gas chromatography retention index relative to a homologous series of n-alkanes, referred to as the methylene unit value, and the mass spectrum compared with authentic standards. Quantification of bile acids was achieved using gas chromatography by comparing the peak height response of the individual bile acids with the peak height response obtained from the internal standard.
Liquid secondary ionization mass spectrometry negative ion spectra of urine samples were obtained after placing approximately 1 μL of the methanolic extract onto a small drop of a glycerol/methanol matrix spotted on a stainless steel probe. This probe was introduced into the ion source of a VG Autospec Q mass spectrometer, and a beam of fast atoms of cesium, generated from cesium iodine (35 KeV), was fired at the target containing the sample. Negative ion spectra were obtained over the mass range of 50-1000 daltons.
Data are expressed as mean±SEM or as mean values of all animals when extracts were pooled before analysis. Results from different groups were compared using paired and unpaired two-tailed Student's t-test. P values of <0.05 were considered statistically significant.

[2] = Hepatic biotransformation of infused bile acid (negative ion FAB-MS, conjugate separation); conditions: i.v. infusion
Experimental: (§1) Adult male Sprague-Dawley rats (body weight 200-230 g) were anesthetized by an intraperitoneal injection of pentobarbital (Nembutal, 7.5 mg/100 g body weight), and maintained under sedation by additional doses. The right jugular vein and the common bile duct were cannulated using PE-50 polyethylene tubing (Clay-Adams, Parsippany, N.J.). Body temperature was maintained throughout the experiment at 37° C. using a rectal probe and a thermostatically controlled heating pad (Harvard Apparatus Co., Inc., Millis, Mass.). Saline was infused at a rate of 1.0 ml/h using a Harvard pump (Harvard Apparatus Co., Inc.) into the jugular vein for a control period of 2h. After collecting two 10 minute bile samples for base-line analysis, the bile acids were individually infused intravenously (i.v.) for 30 minutes in stepwise increasing doses (0.5, 1.0, and 2.0 μmol/min/100 g body weight). Bile acid solutions were prepared in 3% human albumin in 0.45% saline. Six animals were used for each experiment and bile was collected every 10 minutes into preweighed tubes. At the end of the experiment, blood was obtained by cardiac puncture, and urine was obtained by aspiration of the bladder. All biological specimens were stored at -20° C. This animal study protocol (#1 B 10044) was approved by the Bioethics committee of the Children's Hospital Medical Center (Cincinnati, Ohio).
(§2) Negative ion fast atom bombardment-mass spectrometry (FAB-MS) spectra of bile samples, urine and synthetic compounds were obtained after placing the equivalent of approximately 1 μl of the original bile extract, 10 μl-50 μl of the urine extract and jig quantities of synthetic bile acids dissolved in methanol onto a small drop of a glycerol matrix spotted on a copper target of the FAB probe. This probe was introduced directly into the ion source of the mass spectrometer and a beam of fast atoms of either xenon generated with a saddle field atom gun (ion Tech, Teddington, Middlesex, UK) operated at 8 kV and 20 μA, or cesium generated from cesium iodine (35 kV), was fired at the target containing the sample. Negative ion spectra were obtained over the mass range of 50-1000 Da/e.
For the determination of hepatic biotransformation of the infused bile acid, bile collections from the six animal were pooled and biliary bile acids were determined by GC-MS after extraction, solvolysis, hydrolysis, and derivatization. Quantification of bile acids was achieved using GC, by comparing the peak height response of the individual bile acid with the peak height response obtained from the internal standard, nordeoxycholic acid added to the initial sample of bile. Identification of a bile acid was made on the basis of the retention index relative to a homologous series of n-alkanes, referred to as the methylene unit value (MU) and the fragmentation pattern of the mass spectrum was compared with authentic standards. A list of over 100 mass spectra of authentic bile acid standards and retention indices was recently compiled as a reference source (Lawson, A. M., et al, Mass spectrometry of bile acids, The Bile Acids, Vol. 4, Methods and Applications, pp. 167-267 (1988)).
In the case of the animals infused with UDCA-3S, bile was collected during the final period of bile acid infusion ([…]). Bile acids were solvolyzed and separated into groups based on their mode of conjugation using the lipophilic anion exchange gel, diethylaminohydroxypropyl Sephadex LH-20; Packard Instruments, Groningen, The Netherlands). Bile acid composition was determined in each fraction by GC-MS after hydrolysis and preparation of the Me-TMS ethers.

[3] = Urinary excretion after i.v. infusion; conditions: rat, urine, iv, read-out: Proportion of administered dose appearing in urine
Experimental: as §1, §2
Urine collections from the six animals were pooled and the bile acids were extracted by liquid-solid extraction using a Bond Elut-C18 cartridge and bile acids were analyzed by GC-MS after solvolysis, hydrolysis and derivatization.

| Structure (SMILES) | Urinary excretion of sulfate conjugates of UDCA [1] | Urinary unconjugated UDCA excretion [1] | Hepatic biotransformation / form secreted in bile (in words) [2] | Hepatic biotransformation / form secreted in bile (in words) ([2]; listed as UDCA-7-sulfate) | dose excreted [3] | Hepatic biotransformation / form secreted in bile (in words) ([2]; listed as UDCA-disulfate) | Hepatic biotransformation / form secreted in bile (in words) ([2]; listed as C-3 sulfate of UDCA) |
| --- | --- | --- | --- | --- | --- | --- | --- |
| C[C@H](CCC(=O)O)[C@H]1CC[C@H]2[C@@H]3[C@@H](OS(=O)(=O)O)C[C@@H]4C[C@H](O)CC[C@]4(C)[C@H]3CC[C@]12C [UDCA-7S, ursodeoxycholic acid 7-sulfate] | 317.8 nmol/day | 1.8 nmol/day | No other significant ions were present to indicate further metabolic transformation; also recorded: not amidated with taurine or glycine | secreted into bile unchanged | 0.9% | – | – |
| C[C@H](CCC(=O)O)[C@H]1CC[C@H]2[C@@H]3[C@@H](OS(=O)(=O)O)C[C@@H]4C[C@H](OS(=O)(=O)O)CC[C@]4(C)[C@H]3CC[C@]12C [UDCA-DS, ursodeoxycholic acid 3,7-disulfate] | 217.1 nmol/day | 1.3 nmol/day | No other ions were present to suggest further metabolic transformation; also recorded: not amidated with taurine or glycine | – | 2.2% | secreted into bile unchanged | – |
| C[C@H](CCC(=O)O)[C@H]1CC[C@H]2[C@@H]3[C@@H](O)C[C@@H]4C[C@H](OS(=O)(=O)O)CC[C@]4(C)[C@H]3CC[C@]12C [UDCA-3S, ursodeoxycholic acid 3-sulfate] | 2.7 nmol/day | 5.2 nmol/day | – | – | 2.8% | – | secreted into bile to a limited extent unchanged, but also underwent appreciable amidation with taurine and glycine and further hydroxylation |
| C[C@H](CCC(=O)O)[C@H]1CC[C@H]2[C@@H]3[C@@H](O)C[C@@H]4C[C@H](O)CC[C@]4(C)[C@H]3CC[C@]12C [UDCA, 3 alpha, 7 beta-dihydroxy-5 beta-cholan-24oic acid, reference compound] | 4.6 nmol/day | 642.7 nmol/day | almost exclusively conjugated with taurine and glycine; also recorded: mainly conjugated with taurine, and to a lesser extent was converted to glycine, sulfate and flucuronide conjugates | – | 0.01% | – | – |
